Data published in article PMC12136037, “Type II kinase inhibitors that target Parkinson’s disease–associated LRRK2” (Science Advances, 2025).
Where “and” joins values, the source holds several entries; their conditions need not be identical. Equal values may be shown once.

Target: T1, G2019S LRRK2 (Homo sapiens, UniProt Q5S007, G2019S)
T1 construct: The three constructs used in this study are indicated: full-length LRRK2, LRRK2^RCKW, and LRRK2^KW
Assay: Western blot of Rab8a phosphorylation in 293T cells transfected with G2019S LRRK2 and GFP-Rab8a
Type: cell-based
Settings: for inhibition of Rab8a phosphorylation by wild-type and G2019S LRRK2: 293T cells; for pRab8/Rab8/LRRK2 normalized to DMSO, Mean / pRab8/Rab8/LRRK2 normalized to DMSO: GFP-11 tagged G2019S LRRK2, 5 μM; for pRab8/Rab8/LRRK2 normalized to DMSO, Mean: 4 replicates; for pRab8/Rab8/LRRK2 normalized to DMSO: individual blots, normalized to WT DMSO (G2019S DMSO mean 2.25334)
Experimental: For all in cell kinase assays, after 48 hours, transfected cells were treated with either DMSO (control) or the indicated inhibitors for 4 hours at 37°C and 5% CO2. Following treatments, cells were washed three times with ice cold PBS. Cells were then lysed in ice cold radioimmunoprecipitation assay (RIPA) lysis buffer [50 mM tris (pH 8.0), 150 mM NaCl, 1% Triton X-100, 0.1% SDS, 0.5% sodium deoxycholate, and 1 mM DTT] in the presence of complete mini EASYpack protease inhibitor cocktail and the PhosSTOP EASYpack phosphatase inhibitor cocktail (Roche). Resuspended and lysed cells were clarified by centrifugation at 13,000g for 15 min at 4°C. […] The membrane was blocked in 5% milk in 1× Tris-buffered saline (TBS) [20 mM tris (pH 8.0) and 150 mM NaCl] for 1 hour shaking at room temperature. […] Membranes were then washed three times in 1× TBS-T before imaging on Li-COR Odyssey CLx controlled by Imaging Studio software (www.licorbio.com/image-studio, RRID:SCR_015795). […] The signal intensity of each band was assessed using the Analyze>Gels tool. The band intensity for phosphorylated LRRK2 was measured and compared to total LRRK2 levels (run under identical conditions on a separate gel). Band intensity for phosphorylated Rab7 or Rab8a was measured and compared against total GFP-Rab7 or GFP-Rab8a (using anti-GFP antibody) and LRRK1/LRRK2 levels as appropriate. Comparative statistical analysis of phosphorylation levels was analyzed using a one-way analysis of variance (ANOVA) and corrected using Tukey’s multiple comparisons test in GraphPad Prism 10 (www.graphpad.com/, RRID:SCR_002798).

T1 sequence (Q5S007 whole entry G2019S): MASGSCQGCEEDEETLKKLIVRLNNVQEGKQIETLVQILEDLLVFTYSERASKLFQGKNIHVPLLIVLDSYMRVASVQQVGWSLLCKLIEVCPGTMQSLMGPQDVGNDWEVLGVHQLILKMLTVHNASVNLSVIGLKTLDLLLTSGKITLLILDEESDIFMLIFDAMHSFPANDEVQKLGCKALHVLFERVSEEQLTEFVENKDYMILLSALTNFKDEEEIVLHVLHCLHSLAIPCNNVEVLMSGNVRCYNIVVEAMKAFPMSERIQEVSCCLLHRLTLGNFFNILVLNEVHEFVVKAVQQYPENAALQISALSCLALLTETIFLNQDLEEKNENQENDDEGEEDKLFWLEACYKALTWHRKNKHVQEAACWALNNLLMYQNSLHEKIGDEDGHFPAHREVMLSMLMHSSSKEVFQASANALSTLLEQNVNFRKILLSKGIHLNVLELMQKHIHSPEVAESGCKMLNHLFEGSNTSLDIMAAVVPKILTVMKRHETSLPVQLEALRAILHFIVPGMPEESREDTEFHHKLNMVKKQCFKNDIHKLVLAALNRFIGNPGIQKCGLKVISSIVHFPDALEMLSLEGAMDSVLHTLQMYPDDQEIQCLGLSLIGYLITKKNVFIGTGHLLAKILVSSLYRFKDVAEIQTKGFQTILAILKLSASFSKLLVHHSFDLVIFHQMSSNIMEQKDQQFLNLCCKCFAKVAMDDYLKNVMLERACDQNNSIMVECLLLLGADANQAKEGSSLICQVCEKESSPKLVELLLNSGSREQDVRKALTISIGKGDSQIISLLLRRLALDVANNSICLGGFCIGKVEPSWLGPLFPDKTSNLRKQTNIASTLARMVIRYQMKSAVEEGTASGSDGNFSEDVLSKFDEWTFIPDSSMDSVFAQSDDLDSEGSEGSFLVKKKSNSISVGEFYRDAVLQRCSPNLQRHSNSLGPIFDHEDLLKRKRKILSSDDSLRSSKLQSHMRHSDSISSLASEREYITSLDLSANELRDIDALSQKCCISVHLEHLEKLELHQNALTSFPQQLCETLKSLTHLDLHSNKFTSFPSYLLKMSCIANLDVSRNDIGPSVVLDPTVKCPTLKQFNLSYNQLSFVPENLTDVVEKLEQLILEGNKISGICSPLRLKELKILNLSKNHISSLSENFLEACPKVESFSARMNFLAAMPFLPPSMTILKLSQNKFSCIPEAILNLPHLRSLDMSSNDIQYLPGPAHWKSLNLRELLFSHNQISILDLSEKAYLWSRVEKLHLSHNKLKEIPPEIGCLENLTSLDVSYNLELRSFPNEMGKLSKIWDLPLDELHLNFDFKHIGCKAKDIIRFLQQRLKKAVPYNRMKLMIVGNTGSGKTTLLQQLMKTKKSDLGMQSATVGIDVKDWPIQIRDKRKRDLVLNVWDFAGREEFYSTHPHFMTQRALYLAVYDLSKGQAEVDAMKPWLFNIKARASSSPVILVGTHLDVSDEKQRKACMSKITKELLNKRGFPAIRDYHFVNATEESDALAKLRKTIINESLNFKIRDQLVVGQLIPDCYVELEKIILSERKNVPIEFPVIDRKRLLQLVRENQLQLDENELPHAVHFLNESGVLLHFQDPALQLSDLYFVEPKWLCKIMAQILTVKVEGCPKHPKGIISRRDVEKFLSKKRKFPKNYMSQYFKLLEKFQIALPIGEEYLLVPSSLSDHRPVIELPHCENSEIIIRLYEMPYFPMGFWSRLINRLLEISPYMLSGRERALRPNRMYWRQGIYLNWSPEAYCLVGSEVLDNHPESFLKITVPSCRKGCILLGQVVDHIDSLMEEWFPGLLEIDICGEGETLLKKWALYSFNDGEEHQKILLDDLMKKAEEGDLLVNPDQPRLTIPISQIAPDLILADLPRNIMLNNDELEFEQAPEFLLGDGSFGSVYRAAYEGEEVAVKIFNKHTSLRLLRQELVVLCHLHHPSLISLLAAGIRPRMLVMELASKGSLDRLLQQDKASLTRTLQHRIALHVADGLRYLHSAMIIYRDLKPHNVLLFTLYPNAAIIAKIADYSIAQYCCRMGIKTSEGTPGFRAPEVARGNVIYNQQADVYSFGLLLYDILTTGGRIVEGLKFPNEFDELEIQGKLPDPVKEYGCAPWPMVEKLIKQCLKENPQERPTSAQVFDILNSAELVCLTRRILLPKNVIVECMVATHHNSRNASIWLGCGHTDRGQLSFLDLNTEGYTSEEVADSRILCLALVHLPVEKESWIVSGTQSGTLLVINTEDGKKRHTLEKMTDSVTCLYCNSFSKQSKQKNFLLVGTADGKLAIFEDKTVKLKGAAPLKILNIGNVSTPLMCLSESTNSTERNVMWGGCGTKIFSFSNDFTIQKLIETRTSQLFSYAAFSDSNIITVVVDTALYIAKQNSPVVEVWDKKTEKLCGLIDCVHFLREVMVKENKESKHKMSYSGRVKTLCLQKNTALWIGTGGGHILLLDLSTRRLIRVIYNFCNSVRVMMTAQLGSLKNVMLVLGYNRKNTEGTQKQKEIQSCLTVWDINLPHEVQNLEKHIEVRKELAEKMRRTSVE

| SMILES | inhibition of Rab8a phosphorylation by wild-type and G2019S LRRK2 | pRab8/Rab8/LRRK2 normalized to DMSO, Mean | pRab8/Rab8/LRRK2 normalized to DMSO (listed as RN277) | pRab8/Rab8/LRRK2 normalized to DMSO (listed as RN341) |
| --- | --- | --- | --- | --- |
| Cc1ccc(-n2nc(C(C)(C)C)cc2NC(=O)Nc2cccc(-c3c[nH]c4nc(Cl)nc(N5CCOCC5)c34)c2)cc1 [Compound 30] | inhibited phosphorylation of Rab8a by both the wild-type and mutant kinase | 0.5785 | 0.5672 and 0.4996 and 1.119 and 0.1285 |  |
| CCSc1nc(NC)c2c(-c3cccc(NC(=O)Nc4cc(C(C)(C)C)nn4-c4ccc(C)cc4)c3)c[nH]c2n1 [Compound 32] | inhibited phosphorylation of Rab8a by both the wild-type and mutant kinase | 0.8793 |  | 0.923 and 1.39 and 0.7952 and 0.4091 |
